# “Also recorded” adds a separate entry of the source. Counter-ions that a name gives are not always drawn.
# Experiments:
# IL-8 promoter = IL-8 promoter luciferase assay (pIL-8Luc) in HeLa cells; type: cell-based; details: TNFα 20 ng/ml 4 hours, FIG. 7
# Method: Now in order to analyze the effect of cPrG-HCl on IL-8 gene expression which is controlled by transcription factors such as NF-κB and AP-1, luciferase assay was carried out using a reporter plasmid (pIL-8Luc) in which the luciferase gene is bound downstream of the IL-8 promoter region. In the IL-8 promoter, NF-κB, AP-1, and NF-IL6 binding sequences are present.
# The pIL-8Luc was incorporated into HeLa cells by transfection. After 24 hours, the cells were pretreated with cPrG-HCl at a specified concentration for 1 hour and then stimulated with TNFα (20 ng/ml) for 4 hours, after which luciferase activity was measured.
# JNK = details: earlier abstract of the inventors (Kamata et al., 2000); cited from earlier work
# AP-1 = assay: EMSA of AP-1 DNA binding activity; type: cell-based
# Method: In addition, in order to reveal the mechanism of the suppression of AP-1 transcriptional activation, the effect of cPrG-HCl on upstream kinases, i.e., JNK and p38, was analyzed. Further, relationship between the suppression of AP-1 transcriptional activation by cPrG-HCl and the acidification of intracellular pH was studied.
# NF-κB [1] = details: earlier abstract of the inventors (Kamata et al., 2000); cited from earlier work
# caspase-3 = assay: Caspase-3 assay with DEVD-AFC on cell extracts; type: cell-based; details: HeLa cells, cPrG-HCl and TNFα, FIG. 1B; hydrochloride
# Method: Assay for apoptotic processes: Cell viability was determined by dye exclusion assay using 0.1% trypan blue. DNA fragmentation was analyzed as described previously (Kawauchi, K. et al. (1997) Biochem. Biophys. Res. Commun. 237, 543-547). In the caspase-3 assay, cells were disrupted by freeze-thaw in an extraction buffer (50 mM Tris-HCl, pH7.4, 1 mM EGTA, 5 mM EDTA, 5 mM MgCl2, 1 mM APMSF, 10 μg/ml pepstatin, 10 μg/ml leupeptin, and 1 mM DTT). Then the suspension was centrifuged at 15,000 rpm for 20 min, and the supernatants obtained were incubated at 37° C. for 60 min in a reaction buffer (50 mM Tris-HCl, pH7.4, 1 mM EDTA, 10 mM EGTA) with 20 μM of the fluorogenic substrate DEVD-AFC (Peptide Institute, Inc., Japan). Cleavage of the substrates was quantified by measuring the fluorescence of 7-amino-4-trifluomethyl coumarin released using a spectrofluorometer (Shimadzu RF5000) with excitation at 380 mn and emission at 460 nm.
# HeLa cells were treated with TNFα and cPrG.HCl and the effect of cPrG.HCl on apoptosis was examined by measuring DNA fragmentation and survivability.
# NF-κB [2] = assay: EMSA of NF-κB DNA binding activity in nuclear extract; type: cell-based
# Method: Electrophoretic mobility shift assay (EMSA): Nuclear extracts were prepared by the method of Schreiber, et al (Schreiber, E., Matthias, P., Muller, M. M. and Schaffner, W. (1989) Nucleic Acids Res. 17, 6419). Briefly, cells were solubilized with a buffer (10 mM HEPES-NaOH, pH 7.9, 10 mM KCl, 0.1 mM EDTA, 0.1 mM EGTA, 0.4% NP-40, 0.5 mM PMSF, 1 μg/ml aprotinin, 1 μg/ml leupeptin, 1 μg/ml pepstatin, 1 mM DTT), and then centrifuged at 10,000 rpm for 15 min. The pellets were resuspended in a buffer (20 mM HEPES-NaOH, pH 7.9, 400 mM NaCl, 1 mM EDTA, 1 mM EGTA, 1 mM PMSF, 1 μg/ml aprotinin, 1 μg/ml leupeptin, 1 μg/ml pepstatin, 1 μg/ml chymostatin, 1 μg/ml antipain, 1 mM DTT), and then centrifuged at 15,000 rpm for 15 min. […] The samples were electrophoresed on an 8% polyacrylamide gel and analyzed by an Imaging plate (Fuji Film).
# In order to find out the mechanism of NF-κB suppression by cPrG-HCl, the effect on the signal transduction system, which functions upstream of NF-κB, was analyzed. […] Next, the effect of cPrG-HCl on phosphorylation and degradation of IκB was analyzed by Western blotting using anti-IκB antibody (FIG. 2E). […] Accordingly, nuclear translocation of NF-κB was analyzed by Western blotting using p65 and p50 which are components of NF-κB (FIG. 2F). […] Further, the state of NF-κB activation in the nucleus was analyzed by EMSA (electrophoretic mobility shift assay) (FIG. 2G). […]
# CRE binding factor = assay: CRE luciferase assay (pCRELuc) in COS-7 cells; type: cell-based, African green monkey; details: PMA 1 μg/ml 4 hours, FIG. 8
# Method: Here in order to analyze the effect of cPrG-HCl on the CRE binding factor, luciferase assay was carried out using a reporter plasmid (pCRELuc) in which the luciferase gene is linked downstream of the CRE sequence.
# The pCRELuc was transfected in COS-7 cells. After 24 hours, the cells were pretreated with cPrG-HCl at a specified concentration for 1 hour and further stimulated with phorbol ester myristate acetate PMA (1 μg/ml) for 4 hours, after which luciferase activity was measured.
smiles,measurement,setting,value
"COC1=CC(c2ccc[nH]2)=N/C1=C\c1[nH]c(C)c2c1C(C)CCC2 (centres unmarked) [cPrG-HCl, Cycloprodigiosin hydrochloride]",IL-8 promoter-dependent transcriptional activity induced by TNFα,IL-8 promoter,markedly suppressed
same,JNK activation,JNK,no suppressive effect
same,DNA binding activity of AP-1,AP-1,no inhibitory effect
same,gene expression induction by NF-κB,NF-κB [1],significantly suppressed
same,caspase-3 activation,caspase-3,markedly induced; also recorded: marked synergistic caspase-3 activation
same,DNA binding activation of NF-κB,"NF-κB [2]; PMA stimulation, FIG. 3B",inhibited neither
same,DNA binding activity of NF-κB,"NF-κB [2]; TNFα stimulation, FIG. 2G",did not suppress
same,PMA-induced CRE-dependent transcriptional activity,CRE binding factor,markedly suppressed
